Active and inactive are the calls of the source. No cut-off for these calls is given here.

The test system of assay [1] is Mus musculus. The assay is described as follows: Antiobesity activity in Sabra mouse assessed as change in body weight at 1 mg/kg, ip administered on day 8, 9, 10, 11, 14, 18, 24 and 32 measured on day 35 relative to control. Conditions: route intraperitoneal. Format: functional.
Assay [2] has as its system Mus musculus. As to the kind of experiment: Antiobesity activity in Sabra mouse assessed as change in body weight at 1 mg/kg, ip administered on day 8, 9, 10, 11, 14, 18, 24 and 32 measured on day 21 relative to control. It counts as functional. Conditions: route intraperitoneal.
Assay [3] deals with Mus musculus. As to the kind of experiment: Antiobesity activity in Sabra mouse assessed as change in body weight at 1 mg/kg, ip administered on day 8, 9, 10, 11, 14, 18, 24 and 32 measured on day 14 relative to control. It counts as functional. Conditions: route intraperitoneal.
Assay [4] concerns Mus musculus. The assay is described as follows: Antiobesity activity in Sabra mouse assessed as change in body weight at 1 mg/kg, ip administered on day 8, 9, 10, 11, 14, 18, 24 and 32 measured on day 4 relative to control. Conditions: route intraperitoneal. Format: functional.
Assay [5] deals with Hypothalamus. The assay is described as follows: Effect on 5HT1A gene expression in Sabra mouse hypothalamus assessed as change in mRNA level at 1 mg/kg, ip administered on day 8, 9, 10, 11, 14, 18, 24 and 32 by RT-PCR analysis relative to GAPDH. Format: functional. As to conditions: route intraperitoneal.
The subject of assay [6] is Mus musculus. The assay is described as follows: Antiobesity activity in Sabra mouse assessed as change in food consumption at 1 mg/kg, ip administered on day 8, 9, 10, 11, 14, 18, 24 and 32 measured after 6 weeks relative to control. Format: functional. As to conditions: route intraperitoneal.
Assay [7] relates to Mus musculus. As to the kind of experiment: Antiobesity activity in Sabra mouse assessed as change in food consumption at 1 mg/kg, ip administered on day 8, 9, 10, 11, 14, 18, 24 and 32 measured after 2 weeks relative to control. Format: functional. Conditions: route intraperitoneal.
In assay [8] the target is T1, Peroxisome proliferator-activated receptor alpha (Homo sapiens) (UniProt Q07869).
T1 sequence (whole entry): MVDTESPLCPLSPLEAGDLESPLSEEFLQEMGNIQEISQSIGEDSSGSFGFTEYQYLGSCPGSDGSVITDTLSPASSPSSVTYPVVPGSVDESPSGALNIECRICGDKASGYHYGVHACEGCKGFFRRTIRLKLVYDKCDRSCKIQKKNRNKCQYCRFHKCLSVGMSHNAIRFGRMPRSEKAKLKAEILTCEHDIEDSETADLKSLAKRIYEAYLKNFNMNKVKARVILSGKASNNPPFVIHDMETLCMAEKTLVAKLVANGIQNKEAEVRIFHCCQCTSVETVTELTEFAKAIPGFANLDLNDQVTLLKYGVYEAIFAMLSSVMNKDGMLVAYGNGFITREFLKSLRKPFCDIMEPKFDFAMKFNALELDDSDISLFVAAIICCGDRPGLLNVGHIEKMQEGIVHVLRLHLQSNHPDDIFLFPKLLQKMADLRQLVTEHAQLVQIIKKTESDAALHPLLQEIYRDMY
As to the kind of experiment: Binding affinity to human recombinant PPARalpha expressed in Escherichia coli at 10 uM for 16 hrs by spectrofluorimetric analysis relative to control.

For assay [9], the system named is Mus musculus. The assay is described as follows: Antiobesity activity in Sabra mouse assessed as change in body weight at 1 mg/kg, ip administered on day 8, 9, 10, 11, 14, 18, 24 and 32 measured on day 25 relative to control. It counts as functional. Conditions: route intraperitoneal.
The test system of assay [10] is Mus musculus. As to the kind of experiment: Antiobesity activity in Sabra mouse assessed as change in food consumption at 1 mg/kg, ip administered on day 8, 9, 10, 11, 14, 18, 24 and 32 measured after 4 weeks relative to control. It counts as functional. Conditions: route intraperitoneal.
Assay [11] concerns Mus musculus. As to the kind of experiment: Increase in motor activity Sabra mouse at 1 mg/kg, ip administered on day 8, 9, 10, 11, 14, 18, 24 and 32 measured on day 14 by open field test. Set-up: dose 1 mg/kg. Format: functional, organism-based.
The test system of assay [12] is Hypothalamus. The assay is described as follows: Effect on CART gene expression in Sabra mouse hypothalamus assessed as change in mRNA level at 1 mg/kg, ip administered on day 8, 9, 10, 11, 14, 18, 24 and 32 by RT-PCR analysis relative to GAPDH. It counts as functional. Conditions: route intraperitoneal.
In assay [13] the target is Cannabinoid receptor 1 (Homo sapiens) (UniProt P21554). As to the kind of experiment: Displacement of [3H]SR141716A from human CB1 receptor expressed in rat Chem-1 cell membrane at 10 uM relative to control. Format: cell membranes. (In general: Displacement assays read how much labelled ligand stays bound in the presence of the test substance.)
Assay [14] concerns Mus musculus. The assay is described as follows: Antiobesity activity in Sabra mouse assessed as change in food consumption at 1 mg/kg, ip administered on day 8, 9, 10, 11, 14, 18, 24 and 32 measured after 5 weeks relative to control. Format: functional. Conditions: route intraperitoneal.
Assay [15] deals with T2, Fatty-acid amide hydrolase 1 (Rattus norvegicus) (UniProt P97612).
T2 sequence (whole entry): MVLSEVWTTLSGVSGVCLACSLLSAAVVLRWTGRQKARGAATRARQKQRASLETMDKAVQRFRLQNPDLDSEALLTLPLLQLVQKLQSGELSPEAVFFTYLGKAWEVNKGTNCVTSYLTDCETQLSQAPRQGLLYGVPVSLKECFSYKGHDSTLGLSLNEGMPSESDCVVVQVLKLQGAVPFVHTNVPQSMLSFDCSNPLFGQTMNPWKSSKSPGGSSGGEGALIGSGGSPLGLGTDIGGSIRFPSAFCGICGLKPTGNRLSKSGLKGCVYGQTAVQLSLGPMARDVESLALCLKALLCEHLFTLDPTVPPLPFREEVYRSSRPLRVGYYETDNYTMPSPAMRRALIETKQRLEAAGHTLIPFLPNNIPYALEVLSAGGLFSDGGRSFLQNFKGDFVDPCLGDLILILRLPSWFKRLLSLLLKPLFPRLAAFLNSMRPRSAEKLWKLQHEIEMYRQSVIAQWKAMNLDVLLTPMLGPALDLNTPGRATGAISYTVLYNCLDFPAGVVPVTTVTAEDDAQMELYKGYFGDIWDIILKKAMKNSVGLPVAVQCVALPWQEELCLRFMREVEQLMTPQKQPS
The assay is described as follows: Inhibition of rat brain FAAH using [3H]anandamide as substrate at 10 uM preincubated for 15 mins before substrate addition relative to control.

Assay [16] deals with Mus musculus. As to the kind of experiment: Antiobesity activity in Sabra mouse assessed as change in body weight at 1 mg/kg, ip administered on day 8, 9, 10, 11, 14, 18, 24 and 32 measured on day 30 relative to control. Conditions: route intraperitoneal. It counts as functional.
Assay [17] has as its system Mus musculus. As to the kind of experiment: Antiobesity activity in Sabra mouse assessed as change in food consumption at 1 mg/kg, ip administered on day 8, 9, 10, 11, 14, 18, 24 and 32 measured after 3 weeks relative to control. Format: functional. As to conditions: route intraperitoneal.
Assay [18] relates to Hypothalamus. The assay is described as follows: Effect on POMC gene expression in Sabra mouse hypothalamus assessed as change in mRNA level at 1 mg/kg, ip administered on day 8, 9, 10, 11, 14, 18, 24 and 32 by RT-PCR analysis relative to GAPDH. It counts as functional. As to conditions: route intraperitoneal.
Assay [19] concerns Mus musculus. As to the kind of experiment: Antiobesity activity in Sabra mouse assessed as change in body weight at 1 mg/kg, ip administered on day 8, 9, 10, 11, 14, 18, 24 and 32 measured on day 9 relative to control. It counts as functional. Conditions: route intraperitoneal.
The test system of assay [20] is Mus musculus. The assay is described as follows: Antiobesity activity in Sabra mouse assessed as change in body weight at 1 mg/kg, ip administered on day 8, 9, 10, 11, 14, 18, 24 and 32 measured on day 39 relative to control. It counts as functional. Conditions: route intraperitoneal.
Assay [21] concerns the target Cannabinoid receptor 2 (Homo sapiens) (UniProt P34972). The assay is described as follows: Displacement of [3H]WIN-55,212-2 from human recombinant CB2 receptor expressed in CHO-K1 cells at 10 uM relative to control. It counts as cell-based.
The subject of assay [22] is Hypothalamus. As to the kind of experiment: Effect on CAMKK2 gene expression in Sabra mouse hypothalamus assessed as change in mRNA level at 1 mg/kg, ip administered on day 8, 9, 10, 11, 14, 18, 24 and 32 by RT-PCR analysis relative to GAPDH. Format: functional. Conditions: route intraperitoneal.
Assay [23] concerns Hypothalamus. As to the kind of experiment: Effect on FAAH gene expression in Sabra mouse hypothalamus assessed as change in mRNA level at 1 mg/kg, ip administered on day 8, 9, 10, 11, 14, 18, 24 and 32 by RT-PCR analysis relative to GAPDH. Format: functional. As to conditions: route intraperitoneal.
The test system of assay [24] is Hypothalamus. As to the kind of experiment: Effect on NPY gene expression in Sabra mouse hypothalamus assessed as change in mRNA level at 1 mg/kg, ip administered on day 8, 9, 10, 11, 14, 18, 24 and 32 by RT-PCR analysis relative to GAPDH. It counts as functional. Conditions: route intraperitoneal.
The target in assay [25] is Transient receptor potential cation channel subfamily V member 1 (Rattus norvegicus) (UniProt O35433). The assay is described as follows: Displacement of [3H]resiniferatoxin from TRPV1 receptor in Wistar rat spinal cord at 10 uM relative to control.
Transient receptor potential cation channel subfamily V member 1 (Rattus norvegicus), sequence (O35433 whole entry): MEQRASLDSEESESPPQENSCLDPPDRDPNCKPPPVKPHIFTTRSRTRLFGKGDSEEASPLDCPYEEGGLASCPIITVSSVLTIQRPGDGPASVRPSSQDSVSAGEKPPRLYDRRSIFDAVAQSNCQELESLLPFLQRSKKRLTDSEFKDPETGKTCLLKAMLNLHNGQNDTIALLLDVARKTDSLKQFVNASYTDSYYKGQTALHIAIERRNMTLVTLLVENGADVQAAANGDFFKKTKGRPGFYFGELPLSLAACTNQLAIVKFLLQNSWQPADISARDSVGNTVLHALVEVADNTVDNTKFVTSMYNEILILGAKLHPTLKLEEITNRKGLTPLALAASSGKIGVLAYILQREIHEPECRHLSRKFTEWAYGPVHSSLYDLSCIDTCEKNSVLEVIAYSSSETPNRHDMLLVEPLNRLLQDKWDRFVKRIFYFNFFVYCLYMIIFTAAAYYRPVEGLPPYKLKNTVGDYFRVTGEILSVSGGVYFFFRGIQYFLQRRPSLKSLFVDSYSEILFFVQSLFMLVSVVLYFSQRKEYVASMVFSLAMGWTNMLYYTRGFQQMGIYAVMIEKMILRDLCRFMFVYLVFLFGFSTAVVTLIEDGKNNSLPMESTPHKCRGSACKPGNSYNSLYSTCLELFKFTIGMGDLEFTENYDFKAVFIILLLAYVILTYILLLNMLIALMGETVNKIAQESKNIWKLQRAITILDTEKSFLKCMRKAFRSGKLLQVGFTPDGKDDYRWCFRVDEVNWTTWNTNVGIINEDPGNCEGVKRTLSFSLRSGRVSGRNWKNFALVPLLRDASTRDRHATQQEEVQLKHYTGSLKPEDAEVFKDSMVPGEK

Cannabinoid receptor 1 (Homo sapiens), sequence (P21554 whole entry): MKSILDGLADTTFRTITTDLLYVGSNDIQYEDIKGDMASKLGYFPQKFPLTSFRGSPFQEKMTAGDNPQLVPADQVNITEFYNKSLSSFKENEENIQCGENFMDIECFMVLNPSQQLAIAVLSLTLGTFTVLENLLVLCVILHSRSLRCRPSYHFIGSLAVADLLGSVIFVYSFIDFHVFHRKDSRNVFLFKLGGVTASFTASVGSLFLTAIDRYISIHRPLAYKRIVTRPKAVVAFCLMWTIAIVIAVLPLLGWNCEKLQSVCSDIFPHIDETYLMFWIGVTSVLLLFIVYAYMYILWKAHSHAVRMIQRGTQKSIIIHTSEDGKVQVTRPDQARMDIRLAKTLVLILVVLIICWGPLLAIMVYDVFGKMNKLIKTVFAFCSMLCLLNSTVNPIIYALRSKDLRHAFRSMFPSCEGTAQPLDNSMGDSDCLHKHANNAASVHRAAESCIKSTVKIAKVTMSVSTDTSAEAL
Cannabinoid receptor 2 (Homo sapiens), sequence (P34972 whole entry): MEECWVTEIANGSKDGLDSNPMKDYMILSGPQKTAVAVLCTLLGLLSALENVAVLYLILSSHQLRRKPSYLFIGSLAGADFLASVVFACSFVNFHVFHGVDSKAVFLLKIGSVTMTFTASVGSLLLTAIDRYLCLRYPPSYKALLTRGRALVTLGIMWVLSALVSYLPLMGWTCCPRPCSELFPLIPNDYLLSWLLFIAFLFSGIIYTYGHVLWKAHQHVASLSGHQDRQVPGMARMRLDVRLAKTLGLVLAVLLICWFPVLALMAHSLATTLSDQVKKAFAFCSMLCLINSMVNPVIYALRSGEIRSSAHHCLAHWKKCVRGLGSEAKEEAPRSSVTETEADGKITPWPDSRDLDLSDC

Broadly, the inhibition is how much of the control response was suppressed. For the compound `CCCCCCCC/C=C/CCCCCCCC(=O)N[C@@H](CO)C(C)C`, the Activity in the assay on Mus musculus [1] is given as 1.4%; with Mus musculus [2], -1%; in the assay on Mus musculus [3], -0.3%; in the assay with Mus musculus [4] it was -2.3%; in the assay with Hypothalamus [5], -18%; in the assay on Mus musculus [6] it was 109.1%. Further, the Activity is 102.9% with Mus musculus [7]; 0% in [8]; -1.1% in the assay with Mus musculus [9]; 108% in the assay with Mus musculus [10]; 25% in the assay on Hypothalamus [12]; 111.4% in the assay with Mus musculus [14]. Also, the Activity in the assay with Mus musculus [16] is given as 0.2%; with Mus musculus [17] it was 112%; in the assay with Hypothalamus [18], 5%; with Mus musculus [19], -1.7%; in the assay on Mus musculus [20] it was -1%; in the assay with Hypothalamus [22] it was 8%. Also, the Activity is reported as -46% in the assay on Hypothalamus [23] and -9% with Hypothalamus [24]. For the same compound, the result with Mus musculus [11] was inactive. In addition, the inhibition in assay [13] came to 7%; in assay [15] it was 13%; in assay [21], 0%.

As to `CCCCCCCCCCCCCCCC(=O)N[C@H](CO)C(C)C`, the Activity with Mus musculus [1] is recorded as -8.5%; in the assay with Mus musculus [2] it was 3%; in the assay with Mus musculus [3], -2.2%; with Mus musculus [4], 1.9%; in the assay with Hypothalamus [5], -1%; in the assay with Mus musculus [6], 81.4%. Moreover, the Activity was 97% in the assay on Mus musculus [7]; 2% in assay [8]; -4.9% in the assay on Mus musculus [9]; 85.9% in the assay on Mus musculus [10]; -13% in the assay with Hypothalamus [12]; 97.4% in the assay with Mus musculus [14]. For the same compound, the Activity with Mus musculus [16] is on record as -7.1%; in the assay on Mus musculus [17] it was 96.8%; in the assay with Hypothalamus [18], 2%; in the assay on Mus musculus [19] it was -2.1%; in the assay with Mus musculus [20], -6.7%; in the assay with Hypothalamus [22], 15%. The Activity in the assay on Hypothalamus [23] is listed as 15%; in the assay on Hypothalamus [24] it was -52%. In the assay with Mus musculus [11], the outcome was inactive. Moreover, the inhibition amounted to 21% in assay [13] and 0% in assay [21].

Turning to `CCCCCCCC/C=C/CCCCCCCC(=O)N[C@H](CO)C(C)C`, the Activity was 1.6% in the assay on Mus musculus [1]; -0.1% in the assay on Mus musculus [2]; 1% with Mus musculus [3]; 3.1% in the assay on Mus musculus [4]; -9% with Hypothalamus [5]; 104.5% in the assay with Mus musculus [6]. In addition, the Activity in the assay on Mus musculus [7] is 98.5%; in assay [8], 0%; with Mus musculus [9] it was 0.7%; in the assay with Mus musculus [10], 104.9%; in the assay with Hypothalamus [12], -11%; in the assay on Mus musculus [14], 109.2%. In addition, the Activity in the assay with Mus musculus [16] is recorded as 0.2%; with Mus musculus [17] it was 108.1%; in the assay with Hypothalamus [18] it was 10%; in the assay on Mus musculus [19], -0.1%; in the assay on Mus musculus [20], 0%; in the assay with Hypothalamus [22], 62%. Further, the Activity in the assay on Hypothalamus [23] was found to be 15%; in the assay on Hypothalamus [24] it was 69%. Moreover, the inhibition in [25] worked out at 6%; in assay [13], 8%; in [15], 7%; in [21], 5%.

Values taken from ChEMBL document CHEMBL2321853, “Novel acylethanolamide derivatives that modulate body weight through enhancement of hypothalamic pro-opiomelanocortin (POMC) and/or decreased neuropeptide Y (NPY)” (J Med Chem, 2013).
